For orientation: EC50 means the concentration that produces a half-maximal response.

SMILES strings stand for the structures.

The results in this text go back to patent US20080318999A1, “Tricyclic Benzimidazoles and Their Use as Metabotropic Glutamate Receptor Modulators” (priority 2005, published 2008).

For the test, the target named is T1, human mGluR2 (Homo sapiens, UniProt Q14416).
T1 construct: If the GTPgammaS assay gave them: nothing
Put plainly: mGluR2 allosteric activator assays described herein (FLIPR calcium mobilization in HEK 293 mGluR2/CaR cells; [35S]-GTPγS binding with CHO membranes). It is filed as cell-based. The following applies: potentiator / positive allosteric modulator activity at mGluR2; the patent does not say which of the two described assays (FLIPR or GTPγS). The source says:
The pharmacological properties of the compounds of the invention can be analyzed using standard assays for functional activity. Examples of glutamate receptor assays are well known in the art as described in, for example, Aramori et al., 1992, Neuron, 8:757; Tanabe et al., 1992, Neuron, 8:169; Miller et al., 1995, J. Neuroscience, 15:6103; Balazs, et al., 1997, J. Neurochemistry, 1997, 69:151. The methodology described in these publications is incorporated herein by reference. Conveniently, the compounds of the invention can be studied by means of an assay that measures the mobilization of intracellular calcium, [Ca^2+]i in cells expressing mGluR2.
Fluorometric Imaging Plate Reader (FLIPR) analysis was used to detect allosteric activators of mGluR2 via calcium mobilization. […]
FLIPR experiments were done using a laser setting of 0.8 W and a 0.4 second CCD camera shutter speed. […] An addition of test compound (0.01 μM to 30 μM in duplicate) was made after 10 seconds of baseline fluorescent readings were recorded on FLIPR. Fluorescent signals were then recorded for an additional 75 seconds at which point a second addition of DCG-IV (0.2 μM) was made and fluorescent signals were recorded for an additional 65 seconds. Fluorescent signals were measured as the peak height of the response within the sample period. […]
For orientation: Calcium assays in cells follow changes in intracellular calcium, usually with a dye or a luminescent sensor.

T1 sequence (Q14416 19-819 limits assumed): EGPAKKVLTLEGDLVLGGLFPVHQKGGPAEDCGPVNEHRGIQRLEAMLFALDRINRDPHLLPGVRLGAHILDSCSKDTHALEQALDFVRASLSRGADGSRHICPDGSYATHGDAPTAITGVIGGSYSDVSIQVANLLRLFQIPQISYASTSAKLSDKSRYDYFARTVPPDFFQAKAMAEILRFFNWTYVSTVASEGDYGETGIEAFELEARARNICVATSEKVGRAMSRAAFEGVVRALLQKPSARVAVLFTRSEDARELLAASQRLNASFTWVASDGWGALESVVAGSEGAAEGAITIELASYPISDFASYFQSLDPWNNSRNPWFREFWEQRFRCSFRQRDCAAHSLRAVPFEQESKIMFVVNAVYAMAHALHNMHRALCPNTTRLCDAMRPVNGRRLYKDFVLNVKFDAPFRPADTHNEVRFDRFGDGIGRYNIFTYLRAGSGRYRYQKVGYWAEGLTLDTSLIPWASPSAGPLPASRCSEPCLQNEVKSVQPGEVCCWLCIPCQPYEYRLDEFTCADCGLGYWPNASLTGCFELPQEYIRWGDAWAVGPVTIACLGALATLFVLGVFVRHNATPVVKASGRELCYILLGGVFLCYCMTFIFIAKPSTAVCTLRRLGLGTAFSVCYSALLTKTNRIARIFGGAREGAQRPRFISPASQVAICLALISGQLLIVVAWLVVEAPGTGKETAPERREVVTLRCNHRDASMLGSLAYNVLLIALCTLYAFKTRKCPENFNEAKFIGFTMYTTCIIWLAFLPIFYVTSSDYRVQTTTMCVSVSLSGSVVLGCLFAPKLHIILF

In the case of `O=C1CCn2c(CN3CCC(c4ccc(F)cc4)CC3)nc3cc(F)cc1c32` [Example 28.1, 8-Fluoro-2-[4-(4-fluoro-phenyl)-piperidin-1-ylmethyl]-4,5,9a,9b-tetrahydroimidazo[4,5,1-ij]quinolin-6-one], the EC50 was determined as 1.11 µM.
